For the assay, the target named is T1, recombinant IRAK-4 kinase (Homo sapiens, UniProt Q9NWZ3).
T1 construct: purchased Millipore, USA
T1 sequence (Q9NWZ3 1-460): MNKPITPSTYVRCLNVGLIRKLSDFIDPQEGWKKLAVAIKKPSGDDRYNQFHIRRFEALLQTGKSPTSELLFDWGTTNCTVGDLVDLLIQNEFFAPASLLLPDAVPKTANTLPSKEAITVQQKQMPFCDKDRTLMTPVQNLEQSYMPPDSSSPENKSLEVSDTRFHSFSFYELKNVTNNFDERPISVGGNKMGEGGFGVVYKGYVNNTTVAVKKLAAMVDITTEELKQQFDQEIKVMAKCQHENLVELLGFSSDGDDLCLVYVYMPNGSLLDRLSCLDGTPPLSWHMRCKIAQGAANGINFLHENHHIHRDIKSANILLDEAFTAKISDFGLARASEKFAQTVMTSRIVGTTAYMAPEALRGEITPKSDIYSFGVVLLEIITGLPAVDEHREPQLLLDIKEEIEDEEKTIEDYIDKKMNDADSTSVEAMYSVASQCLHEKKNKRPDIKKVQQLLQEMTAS
In words: IRAK-4 Biochemical Assay (TR-FRET, percent inhibition). As to conditions: TR-FRET, 20 μM ATP, 100 nM Biotin Histone H3; for inhibition at 0.1 µM: read-out: % inhibition of IRAK-4 @0.1 μM, compound at 0.1 μM; for inhibition at 1 µM: read-out: % inhibition of IRAK-4 @ 1 μM, compound at 1 μM. The method, boiled down:
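IRAK-4 pre-incubated with compound 30 min at room temperature in Tris-HCl pH 7.5 buffer with MgCl2, MnCl2 and DTT, then reacted 30 min with 100 nM biotin-histone H3 and 20 μM ATP. EDTA stop with Eu-anti-phospho-H3 (Ser10) and APC-streptavidin. Percent inhibition derived from the 665/615 nm emission ratio at 340 nm excitation.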
(Time-resolved FRET reads energy transfer from a long-lived donor to a nearby acceptor.)

Counter-ions that a name gives are not always drawn.

As a reminder, the inhibition is the change of the read-out against control, counted positive when it falls. As for `C[C@H](O)Cn1cc(-c2cccc(C(=O)Nc3cc4oc(N5CCOCC5)nc4nc3N3CC[C@@H](O)C3)n2)cn1` [Example 94, 6-(1-((S)-2-hydroxypropyl)-1H-pyrazol-4-yl)-N-(5-((R)-3-hydroxypyrrolidin-1-yl)-2-morpholinooxazolo[4,5-b]pyridin-6-yl)picolinamide], the inhibition at 0.1 µM was found to be 12% and the inhibition at 1 µM turned out to be 60%.
Regarding `Cc1cc(-c2nc(C(=O)Nc3cc4oc(N5CCOCC5)nc4nc3N3CC[C@@H](OCC4CC4)C3)co2)ccn1` [Example 95, (R)-N-(5-(3-(cyclopropylmethoxy)pyrrolidin-1-yl)-2-morpholinooxazolo[4,5-b]pyridin-6-yl)-2-(2-methylpyridin-4-yl)oxazole-4-carboxamide], the inhibition at 0.1 µM turned out to be 80% and the inhibition at 1 µM was 97%.
Taken in the same sequence, the figures for `Cc1cc(-c2nc(C(=O)Nc3cc4oc(N5CCOCC5)nc4nc3N3CC[C@@H](OC(=O)CN)C3)co2)ccn1` [Example 97, (R)-1-(6-(2-(2-methylpyridin-4-yl)oxazole-4-carboxamido)-2-morpholinooxazolo[4,5-b]pyridin-5-yl)pyrrolidin-3-yl glycinate] were 87% and 99%.
In the case of `N[C@H]1CCCCC1Nc1ccn2ncc(C(=O)Nc3cc4sc(N5CCOCC5)nc4nc3C3CC3)c2n1` (some centres unmarked) [Example 98, 2,2,2-trifluoroacetate], the inhibition at 0.1 µM was determined as 94% and the inhibition at 1 µM was 97%.
Turning to `NC1CCN(c2ccn3ncc(C(=O)Nc4cc5sc(N6CCOCC6)nc5nc4C4CC4)c3n2)CC1` [Example 99, 5-(4-aminopiperidin-1-yl)-N-(5-cyclopropyl-2-morpholinothiazolo[4,5-b]pyridin-6-yl)pyrazolo[1,5-a]pyrimidine-3-carboxamide 2,2,2-trifluoroacetate], the inhibition at 0.1 µM worked out at 89% and the inhibition at 1 µM is 96%.
For the molecule `O=C(Nc1cc2sc(N3CCOCC3)nc2nc1C1CC1)c1cnn2ccc(N3CCC[C@H](O)C3)nc12` [Example 100, (S)-N-(5-cyclopropyl-2-morpholinothiazolo[4,5-b]pyridin-6-yl)-5-(3-hydroxypiperidin-1-yl)pyrazolo[1,5-a]pyrimidine-3-carboxamide], the inhibition at 0.1 µM came out at 96% and the inhibition at 1 µM is 99%.
As to `O=C(Nc1cc2sc(N3CCOCC3)nc2nc1C1CC1)c1cnn2ccc(N3CCC(O)CC3)nc12` [Example 101, N-(5-cyclopropyl-2-morpholinothiazolo[4,5-b]pyridin-6-yl)-5-(4-hydroxypiperidin-1-yl)pyrazolo[1,5-a]pyrimidine-3-carboxamide], the inhibition at 0.1 µM is 96% and the inhibition at 1 µM turned out to be 98%.
Consider `NC1CCCN(c2ccn3ncc(C(=O)Nc4cc5sc(N6CCOCC6)nc5nc4N4CC[C@@H](O)C4)c3n2)C1` (stereo partly drawn) [Example 102, 5-(3-aminopiperidin-1-yl)-N-(5-((R)-3-hydroxypyrrolidin-1-yl)-2-morpholinothiazolo[4,5-b]pyridin-6-yl)pyrazolo[1,5-a]pyrimidine-3-carboxamide hydrochloride], for which the inhibition at 0.1 µM turned out to be 21% and the inhibition at 1 µM is 56%.
For the molecule `O=C(Nc1cc2sc(N3CCOCC3)nc2nc1N1CC[C@@H](O)C1)c1cnn2cccnc12` [Example 103, (R)-N-(5-(3-hydroxypyrrolidin-1-yl)-2-morpholinothiazolo[4,5-b]pyridin-6-yl)pyrazolo[1,5-a]pyrimidine-3-carboxamide hydrochloride], the inhibition at 0.1 µM was determined as 92% and the inhibition at 1 µM was found to be 97%.
As for `O=C(Nc1cc2sc(N3CCOCC3)nc2nc1N1CCCCC1)c1cnn2cccnc12` [Example 104, N-(2-morpholino-5-(piperidin-1-yl)thiazolo[4,5-b]pyridin-6-yl)pyrazolo[1,5-a]pyrimidine-3-carboxamide hydrochloride], the inhibition at 0.1 µM is 95% and the inhibition at 1 µM came to 97%.
The like results for `O=C(Nc1cc2sc(N3CCOCC3)nc2nc1C1CC1)c1cnn2cccnc12` [Example 105, N-(5-cyclopropyl-2-morpholinothiazolo[4,5-b]pyridin-6-yl)pyrazolo[1,5-a]pyrimidine-3-carboxamide] were, in that order, 96% and 97%.
`Cl.O=C(Nc1cc2sc(N3CCOCC3)nc2nc1C1CC1)c1cnn2cccnc12` [Example 106, N-(5-cyclopropyl-2-morpholinothiazolo[4,5-b]pyridin-6-yl)pyrazolo[1,5-a]pyrimidine-3-carboxamide hydrochloride]: the “% inhibition of IRAK-4 @0.1 μM” value (compound at 0.1 μM) amounted to 93%. Also, where the note is “compound at 1 μM”, the “% inhibition of IRAK-4 @ 1 μM” value was determined as 97%.
As for `O=C(Nc1cc2oc(N3CCOCC3)nc2nc1C1CC1)c1cnn2cccnc12` [Example 107, N-(5-cyclopropyl-2-morpholinooxazolo[4,5-b]pyridin-6-yl)pyrazolo[1,5-a]pyrimidine-3-carboxamide hydrochloride], the inhibition at 0.1 µM amounted to 57% and the inhibition at 1 µM was determined as 92%.

Source of the values: patent US20180208605A1, “Substituted Aza Compounds as IRAK-4 Inhibitors” (AURIGENE DISCOVERY TECHNOLOGIES LIMITED, priority 2015, published 2018).
